Data reported in patent publication US20090275574A1, “NOVEL COMPOUNDS-300” (ASTRAZENECA AB, priority 2008, published 2009).

Columns and labels:
[1] = target: T1, hM3 (human Muscarinic receptor subtype 3) (Homo sapiens, UniProt P20309); test: Human M3 calcium mobilization FLIPR assay; assay type: cell-based; settings: hM3 expressed in CHO cells, intracellular Ca2+ release (FLIPR)
T1 construct: expressed in transfected cells; host or cells: CHO cells (ATCC)
Procedure: (§1) Human M1, rat M1, Human M3 and Human M5 Calcium Mobilization FLIPR™ Assay The compound activity in the present invention (EC50 or IC50) is measured using a 384 plate-based imaging assay that monitors drug induced intracellular Ca^2+ release in whole cells. Activation of hM1 (human Muscarinic receptor subtype 1, gene bank access NM_000738), rM1 (rat Muscarinic receptor subtype 1, gene bank access NM_080773), hM3 (human Muscarinic receptor subtype 3, gene bank access NM_000740NM_000740) and hM5 (human Muscarinic receptor subtype 5, gene bank access NM_0121258), receptors expressed in CHO cells (Chinese hamster ovary cells, ATCC) is quantified in a Molecular Devices FLIPR IITM instrument as an increase in fluorescent signal. Inhibition of hM3 and hM5 by compounds is determined by the decrease in fluorescent signal in response to 2 nM acetylcholine activation. […] Prior to experiment, the cell culture medium is removed from the plates by inversion. […] Plates are incubated at 37° C. for 60 minutes prior to start the experiment. The incubation is terminated by washing the cells four times in assay buffer, leaving a residual 25 μl buffer per well. Cell plates are then transferred to the FLIPR, ready for compound additions. The day of experiment, acetylcholine and compounds are diluted in assay buffer in three-fold concentration range (10 points serial dilution) for addition by FLIPR instrument. For all calcium assays, a baseline reading is taken for 10 seconds followed by the addition of 12.5 μl of compounds, resulting in a total well volume of 37.5 μl. Data is collected every second for 60 pictures and then every 6 seconds for 20 pictures prior to the addition of agonist. For hM3 and hM5, before agonist addition, a second baseline reading is taken for 10 seconds followed by the addition of 12.5 μl of agonist or buffer, producing a final volume of 50 μl. After agonist stimulation, the FLIPR continues to collect data every second for 60 pictures and then every 6 seconds for 20 pictures. The fluorescence emission is read using filter 1 (emission 510-570 nm) by the FLIPR on board CCD camera. Calcium mobilization output data are calculated as the maximal relative fluorescence unit (RFU) minus the minimal value for both compound and agonist reading frame (except for hM1 and rM1 using only the maximal RFU). Data are analyzed using sigmoidal fits of a non-linear curve-fitting program (XLfit version 4.2.2 Excel add-in version 4.2.2 build 18 math 1Q version 2.1.2 build 18). All pEC50 and pIC50 values are reported as arithmetic means±standard error of mean of ‘n’ independent experiments.

cloned human M2 receptor = target: T2, cloned human M2 receptor (Homo sapiens, UniProt P08172); test: hM2 receptor GTPγS binding; assay type: biochemical; settings: CHO membranes expressing hM2, [35S]GTPγS binding
T2 construct: purchased Perkin-Elmer RBHM2M; host or cells: Chinese hamster ovary cells (CHO), membranes
T2 sequence (P08172 1-466): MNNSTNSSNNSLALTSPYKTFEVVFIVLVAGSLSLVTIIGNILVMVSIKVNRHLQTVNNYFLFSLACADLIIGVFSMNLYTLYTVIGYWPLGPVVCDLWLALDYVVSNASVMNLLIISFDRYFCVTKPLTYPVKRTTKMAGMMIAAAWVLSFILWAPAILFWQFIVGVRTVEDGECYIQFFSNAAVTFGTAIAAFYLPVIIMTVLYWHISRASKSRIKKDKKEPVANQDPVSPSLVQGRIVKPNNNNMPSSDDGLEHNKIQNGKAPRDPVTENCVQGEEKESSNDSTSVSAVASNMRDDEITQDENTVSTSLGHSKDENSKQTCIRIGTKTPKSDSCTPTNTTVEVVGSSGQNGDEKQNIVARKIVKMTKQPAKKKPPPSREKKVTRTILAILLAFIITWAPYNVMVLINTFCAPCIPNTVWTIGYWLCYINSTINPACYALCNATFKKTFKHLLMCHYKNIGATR
Procedure: hM2 Receptor GTPγS Binding Membranes produced from Chinese hamster ovary cells (CHO) expressing the cloned human M2 receptor (human Muscarinic receptor subtype 2, gene bank access NM_000739), are obtained from Perkin-Elmer (RBHM2M). The membranes are thawed at 37° C., passed 3 times through a 23-gauge blunt-end needle, diluted in the GTPγS binding buffer (50 mM Hepes, 20 mM NaOH, 100 mM NaCl, 1 mM EDTA, 5 mM MgCl2, pH 7.4, 100 μM DTT). The EC50, IC50 and Emax of the compounds of the invention are evaluated from 10-point dose-response curves (three fold concentration range) done in 60 μl in 384-well non-specific binding surface plate (Corning). Ten microliters from the dose-response curves plate (5× concentration) are transferred to another 384 well plate containing 25 μl of the following: 5 μg of hM2 membranes, 500 μg of Flashblue beads (Perkin-Elmer) and GDP 25 μM. An additional 15 μl containing 3.3× (60,000 dpm) of GTPγ^35S (0.4 nM final) are added to the wells resulting in a total well volume of 50 μl. Basal and maximal stimulated [^35S]GTPγS binding are determined in absence and presence of 30 μM final of acetylcholine agonist. The membranes/beads mix are pre-incubated for 15 minutes at room temperature with 25 μM GDP prior to distribution in plates (12.5 μM final). The reversal of acetylcholine-induced stimulation (2 μM final) of [^35S]GTPγS binding is used to assay the antagonist properties (IC50) of the compounds. The plates are incubated for 60 minutes at room temperature then centrifuged at 400 rpm for 5 minutes. The radioactivity (cpm) is counted in a Trilux (Perkin-Elmer). Values of EC50, IC50 and Emax are obtained using sigmoidal fits of a non-linear curve-fitting program (XLfit version 4.2.2 Excel add-in version 4.2.2 build 18 math 1Q version 2.1.2 build 18) of percent stimulated [^35S]GTPγS binding vs. log(molar ligand). All pEC50 and pIC50 values are reported as arithmetic means±standard error of mean of ‘n’ independent experiments.

[2] = target: T3, hM1 (human Muscarinic receptor subtype 1) (Homo sapiens, UniProt P11229); test: Human M1 calcium mobilization FLIPR assay; assay type: cell-based; settings: hM1 expressed in CHO cells, intracellular Ca2+ release (FLIPR)
T3 construct: expressed in transfected cells; host or cells: CHO cells (ATCC)
T3 sequence (P11229 1-460): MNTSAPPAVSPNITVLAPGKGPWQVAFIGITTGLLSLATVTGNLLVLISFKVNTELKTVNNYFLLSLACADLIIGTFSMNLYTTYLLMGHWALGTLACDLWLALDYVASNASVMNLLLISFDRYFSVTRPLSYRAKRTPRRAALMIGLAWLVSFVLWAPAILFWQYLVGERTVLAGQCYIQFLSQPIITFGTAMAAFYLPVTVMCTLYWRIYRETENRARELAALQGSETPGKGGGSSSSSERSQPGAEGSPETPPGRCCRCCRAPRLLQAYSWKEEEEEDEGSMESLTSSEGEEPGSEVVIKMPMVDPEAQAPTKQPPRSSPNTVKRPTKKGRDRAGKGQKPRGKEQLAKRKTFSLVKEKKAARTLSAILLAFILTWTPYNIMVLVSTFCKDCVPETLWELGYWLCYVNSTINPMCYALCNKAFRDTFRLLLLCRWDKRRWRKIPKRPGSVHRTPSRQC
Procedure: as §1

[3] = target: T4, hM5 (human Muscarinic receptor subtype 5) (Homo sapiens, UniProt P08912); test: Human M5 calcium mobilization FLIPR assay; assay type: cell-based; settings: hM5 expressed in CHO cells, intracellular Ca2+ release (FLIPR)
T4 construct: expressed in transfected cells; host or cells: CHO cells (ATCC)
T4 sequence (P08912 1-532): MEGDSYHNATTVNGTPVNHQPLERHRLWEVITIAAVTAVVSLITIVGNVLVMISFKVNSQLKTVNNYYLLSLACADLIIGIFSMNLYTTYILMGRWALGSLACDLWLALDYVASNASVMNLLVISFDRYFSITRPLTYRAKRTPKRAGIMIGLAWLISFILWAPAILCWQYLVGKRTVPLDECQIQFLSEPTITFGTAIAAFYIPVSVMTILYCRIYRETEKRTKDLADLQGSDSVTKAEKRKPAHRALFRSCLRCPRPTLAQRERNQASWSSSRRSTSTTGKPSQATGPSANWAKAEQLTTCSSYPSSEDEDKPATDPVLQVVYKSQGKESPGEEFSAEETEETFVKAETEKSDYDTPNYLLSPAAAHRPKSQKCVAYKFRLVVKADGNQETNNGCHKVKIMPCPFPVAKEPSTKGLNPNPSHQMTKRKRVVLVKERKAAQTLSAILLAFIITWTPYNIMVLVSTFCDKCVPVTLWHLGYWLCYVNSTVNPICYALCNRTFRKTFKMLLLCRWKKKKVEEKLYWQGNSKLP
Procedure: as §1

[4] = one or more of the biological assays described above (unspecified); settings: tested using one or more of the biological assays described above
Procedure: The compound activity in the present invention (EC50 or IC50) is measured using a 384 plate-based imaging assay that monitors drug induced intracellular Ca^2+ release in whole cells. Activation of hM1 (human Muscarinic receptor subtype 1, gene bank access NM_000738), rM1 (rat Muscarinic receptor subtype 1, gene bank access NM_080773), hM3 (human Muscarinic receptor subtype 3, gene bank access NM_000740NM_000740) and hM5 (human Muscarinic receptor subtype 5, gene bank access NM_0121258), receptors expressed in CHO cells (Chinese hamster ovary cells, ATCC) is quantified in a Molecular Devices FLIPR IITM instrument as an increase in fluorescent signal. Inhibition of hM3 and hM5 by compounds is determined by the decrease in fluorescent signal in response to 2 nM acetylcholine activation.
Membranes produced from Chinese hamster ovary cells (CHO) expressing the cloned human M2 receptor (human Muscarinic receptor subtype 2, gene bank access NM_000739), are obtained from Perkin-Elmer (RBHM2M). […] The EC50, IC50 and Emax of the compounds of the invention are evaluated from 10-point dose-response curves (three fold concentration range) done in 60 μl in 384-well non-specific binding surface plate (Corning). […] Basal and maximal stimulated [^35S]GTPγS binding are determined in absence and presence of 30 μM final of acetylcholine agonist. […] The radioactivity (cpm) is counted in a Trilux (Perkin-Elmer). […]

T1 sequence (P20309 whole entry): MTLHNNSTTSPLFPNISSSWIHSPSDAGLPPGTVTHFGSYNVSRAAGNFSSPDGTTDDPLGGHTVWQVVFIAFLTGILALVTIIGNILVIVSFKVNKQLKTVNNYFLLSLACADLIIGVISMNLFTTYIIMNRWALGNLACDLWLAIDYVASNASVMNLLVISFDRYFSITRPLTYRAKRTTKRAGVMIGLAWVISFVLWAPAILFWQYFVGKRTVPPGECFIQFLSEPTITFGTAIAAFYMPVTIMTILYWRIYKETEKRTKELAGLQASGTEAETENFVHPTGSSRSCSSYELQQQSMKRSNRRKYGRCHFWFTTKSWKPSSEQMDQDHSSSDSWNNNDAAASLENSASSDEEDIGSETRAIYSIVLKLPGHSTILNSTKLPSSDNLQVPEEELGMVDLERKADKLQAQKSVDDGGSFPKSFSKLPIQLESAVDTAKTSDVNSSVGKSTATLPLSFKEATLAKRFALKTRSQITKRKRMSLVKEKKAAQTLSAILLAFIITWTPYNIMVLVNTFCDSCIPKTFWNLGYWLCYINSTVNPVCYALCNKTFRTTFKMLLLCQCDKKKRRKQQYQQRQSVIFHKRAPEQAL

Row | SMILES | EC50 [1] [µM] | EC50 (cloned human M2 receptor) [µM] | EC50 [2] [µM] | EC50 [3] [µM] | efficacy [4]
1 | O=C1CO[C@H]2CCCC[C@@H]2N1C1CCN(C2CCC(COCC3CCC3)CC2)CC1 (single isomer, unassigned) [Example 29] | > 40 | > 90 | 0.15 | > 40 | 
2 | O=C1CO[C@H]2CCCC[C@@H]2N1C1CCN(C2CCC(COCC3CCC3)CC2)CC1 (single isomer, unassigned) [Example 28] | > 40 | > 90 | 0.051 | > 40 | 
3 | CC(C)OCC1CCC(N2CCC(N3C(=O)NC[C@H]4CCCC[C@@H]43)CC2)CC1 (single isomer, unassigned) [Example 03] | > 40 | 1.7 | 0.058 | > 14.5 | 
4 | CC(C)OC1CCC(N2CCC(N3C(=O)NC[C@H]4CCCC[C@@H]43)CC2)CC1 (single isomer, unassigned) [diastereomer 2] |  |  |  |  | does not show efficacy
